# Calls of active or inactive are those of the source. No cut-off for these calls is given here.
# System: HCT-116
# Assay: Growth inhibition of human HCT116 cells
# Type: functional, cell-based
row,SMILES,Activity
1,CC(C)=CC(=O)NC1=CC(=O)[C@]2(C)[C@H](O)[C@@H](Cl)[C@H](C)N12,inactive
2,CC(C)=CC(=O)NC1=CC(=O)[C@]2(C)[C@H](O)C[C@H](C)N12,inactive
3,CC(C)=CC(=O)NC1=CC(=O)[C@]2(C)C[C@H](O)[C@H](C)N12,inactive
4,CC(C)=CC(=O)NC1=CC(=O)[C@]2(C)[C@@H]3O[C@@H]3[C@H](C)N12,inactive
